Results from patent US9510589B2, “Use and agrochemical composition of carboxylic acid dibutylamides” (priority 2011, dated 2016).

Tests used:
[1] = test system: enzymatically isolated cuticles of apple tree leaves; assay: Penetration test, epoxiconazole (Example 11); assay type: in vitro ADME, apple trees of the Golden Delicious variety; conditions: without N,N-dibutylcarboxamide, 0.3 g/l epoxiconazole in acetone/water, 20° C., 60% relative air humidity
Method: (§1) In this test, the penetration of active ingredients though enzymatically isolated cuticles of apple tree leaves was measured. Leaves which had been cut off in the fully developed state from apple trees of the Golden Delicious variety were used.
(§2) Thereafter, only the cuticles of the upper leaf sides which were free of stomata and hairs were used in the further procedure. They were repeatedly washed alternately with water and a buffer solution of pH 7. The clean cuticles obtained were finally applied to Teflon sheets and smoothed and dried with a gentle air stream.
(§3) In the next step, the cuticular membranes thus obtained were placed into stainless steel diffusion cells (=transport chambers) for membrane transport studies. For this purpose, the cuticles were positioned using tweezers centrally onto the edges of the diffusion cells which had been smeared with silicone grease and sealed with a ring which had likewise been greased. The arrangement was selected such that the morphological outer side of the cuticles was directed outward, i.e. toward the air, while the original inner side faced the interior of the diffusion cell. […]
(§4) To determine the penetration, 10 μl in each case of a spray liquor of the composition specified in the examples were applied to the outer side of a cuticle. […] The active ingredient penetration was measured by means of HPLC or radiolabeled active ingredient.

[2] = test system: enzymatically isolated cuticles of apple tree leaves; assay: Penetration test, azoxystrobin (Example 10); assay type: in vitro ADME, apple trees of the Golden Delicious variety; conditions: without N,N-dibutylcarboxamide, 0.3 g/l azoxystrobin in acetone/water, 20° C., 60% relative air humidity
Method: as §1, §2, §3, §4

[3] = test system: enzymatically isolated cuticles of apple tree leaves; assay: Penetration test, prothioconazole with dimethyl amide plus dibutyl amides (Example 17); assay type: in vitro ADME, apple trees of the Golden Delicious variety; conditions: no N,N-dibutylcarboxamide, 0.8 g/l prothioconazole in acetone/water with 1.5 g/l N,N-dimethyl-C8-C10-carboxamide and 0.4 g/l tristyrylphenol ethoxylate, n = 21, 20° C., 60% relative air humidity
Method: as §1, §2, §3, §4

[4] = test system: enzymatically isolated cuticles of apple tree leaves; assay: Penetration test, prothioconazole in acetone/water (Example 15); assay type: in vitro ADME, apple trees of the Golden Delicious variety; conditions: without N,N-dibutylcarboxamide, 0.3 g/l prothioconazole in acetone/water, 25° C., 60% relative air humidity
Method: as §1, §2, §3, §4

[5] = test system: isolated apple leaf cuticles; assay: Penetration test, fluopyram EC (Example 21); assay type: in vitro ADME, apple trees of the Golden Delicious variety; conditions: no carboxamide, 0.5 g/l fluopyram, 0.5 g/l emulsifier, 2% by weight solvent, 25° C., 60% relative air humidity
Method: The active ingredient fluopyram was made up as an EC formulation in the laboratory: fluopyram is dissolved in a preliminary mixture of solvent and emulsifier (dimethylacetamide+Tanemul PS16) and diluted with water to give the ready-to-use test solution. The test solution contains 0.5 g/l active ingredient, 0.5 g/l emulsifier and 2% by weight of solvent.

[6] = test system: enzymatically isolated cuticles of apple tree leaves; assay: Penetration test, kresoxim-methyl (Example 9); conditions: without N,N-dibutylcarboxamide, 0.3 g/l kresoxim-methyl in acetone/water, 20° C., 60% relative air humidity
Method: as §1, §2, §3, §4

[7] = test system: enzymatically isolated cuticles of apple tree leaves; assay: Penetration test, bromoxynil, dimethyl vs dibutyl amides (Example 6); assay type: in vitro ADME, apple trees of the Golden Delicious variety; conditions: no N,N-dialkylcarboxamide, 0.5 g/l castor oil ethoxylate emulsifier only, 1.5 g/l bromoxynil in acetone/water, 20° C., 60% relative air humidity
Method: as §1, §2, §3, §4

[8] = test system: enzymatically isolated cuticles of apple tree leaves; assay: Penetration test, spirotetramat in acetone/water (Example 7); assay type: in vitro ADME, apple trees of the Golden Delicious variety; conditions: without N,N-dibutylcarboxamide, 0.3 g/l spirotetramat in acetone/water, 20° C., 60% relative air humidity
Method: as §1, §2, §3, §4

[9] = test system: enzymatically isolated cuticles of apple tree leaves; assay: Penetration test, propiconazole (Example 12); assay type: in vitro ADME, apple trees of the Golden Delicious variety; conditions: without N,N-dibutylcarboxamide, 0.3 g/l propiconazole in acetone/water, 20° C., 60% relative air humidity
Method: as §1, §2, §3, §4

[10] = test system: enzymatically isolated cuticles of apple tree leaves; assay: Penetration test, isopyrazam (Example 13); assay type: in vitro ADME, apple trees of the Golden Delicious variety; conditions: without N,N-dibutylcarboxamide, 0.3 g/l isopyrazam in acetone/water, 20° C., 60% relative air humidity
Method: as §1, §2, §3, §4

## Fc1ccc([C@]2(Cn3cncn3)O[C@H]2c2ccccc2Cl)cc1 (racemic) [epoxiconazole]
[1]; 3 h
  Mean penetration of epoxiconazole in % 3 h: 1%
[1]; 24 h
  Mean penetration of epoxiconazole in % 24 h: 2%

## CO/C=C(/C(=O)OC)c1ccccc1Oc1cc(Oc2ccccc2C#N)ncn1 [azoxystrobin]
[2]; 3 h
  Mean penetration of azoxystrobin in % 3 h: <1%
[2]; 24 h
  Mean penetration of azoxystrobin in % 24 h: 1%

## OC(Cc1ccccc1Cl)(Cn1nc[nH]c1=S)C1(Cl)CC1 (centres unmarked) [prothioconazole]
[3]; 3 h
  Mean penetration of prothioconazole in % 3 h: 1.3 (n = 21) %
[3]; 24 h
  Mean penetration of prothioconazole in % 24 h: 3.7 (n = 21) %
[4]; 3 h
  Mean penetration of prothioconazole in % 3 h: 1%
[4]; 24 h
  Mean penetration of prothioconazole in % 24 h: 2%

## O=C(NCCc1ncc(C(F)(F)F)cc1Cl)c1ccccc1C(F)(F)F [fluopyram]
[5]; 6 h
  Mean penetration of fluopyram in % 6 h: 20%
[5]; 24 h
  Mean penetration of fluopyram in % 24 h: 53%

## CO/N=C(/C(=O)OC)c1ccccc1COc1ccccc1C [kresoxim-methyl]
[6]; 3 h
  Mean penetration of kresoxim-methyl in % 3 h: 1%
[6]; 24 h
  Mean penetration of kresoxim-methyl in % 24 h: 3%

## N#Cc1cc(Br)c(O)c(Br)c1 [bromoxynil]
[7]; 5 h
  Mean penetration of bromoxynil in % 5 h: 4%
[7]; 24 h
  Mean penetration of bromoxynil in % 24 h: 20%

## CCOC(=O)OC1=C(c2cc(C)ccc2C)C(=O)N[C@]12CC[C@@H](OC)CC2 [spirotetramat]
[8]; 3 h
  Mean penetration of spirotetramat in % 3 h: 0%
[8]; 24 h
  Mean penetration of spirotetramat in % 24 h: 1%

## CCCC1COC(Cn2cncn2)(c2ccc(Cl)cc2Cl)O1 (centres unmarked) [propiconazole]
[9]; 3 h
  Mean penetration of propiconazole in % 3 h: 4%
[9]; 24 h
  Mean penetration of propiconazole in % 24 h: 44%

## CC(C)C1C2CCC1c1c(NC(=O)c3cn(C)nc3C(F)F)cccc12 (centres unmarked) [isopyrazam]
[10]; 3 h
  Mean penetration of isopyrazam in % 3 h: 1%
[10]; 24 h
  Mean penetration of isopyrazam in % 24 h: 2%
